# According to patent publication US9006139B2, “Active compound combinations” (Bayer Intellectual Property GmbH, priority 2009, dated 2015):
# How the values were obtained:
# Format in all cases: in vivo
# Fusarium graminearum = conditions: Table L; 62.5 ppm a.i.
# [1] = system: Blumeria graminis fsp. tritici; experiment: Blumeria test (wheat)/preventive; conditions: Table G; 62.5 ppm a.i.
# Method: (§1) Solvent: 49 parts by weight of n,n-dimethylacetamid
# (§2) Emulsifier: 1 part by weight of alkylaryl polyglycol ether
# (§3) To produce a suitable preparation of active compound, 1 part by weight of active compound or active compound combination is mixed with the stated amounts of solvent and emulsifier, and the concentrate is diluted with water to the desired concentration. To test for preventive activity, young plants are sprayed with the preparation of active compound or active compound combination at the stated rate of application. After the spray coating has been dried, the plants are dusted with spores of Blumeria graminis fsp. tritici. The plants are placed in the greenhouse at a temperature of approximately 18° C. and a relative atmospheric humidity of approximately 80% to promote the development of mildew pustules. The test is evaluated 7 days after the inoculation. 0% means an efficacy which corresponds to that of the untreated control, while an efficacy of 100% means that no disease is observed.
# Alternaria solani = experiment: Alternaria test (tomatoes)/protective; conditions: Table E, test 2, 2.5 ppm a.i.; for pest or weed control at 2.5 ppm: Alternaria solani, 72 h, read-out: Efficacy in % found
# Method: (§4) Solvent: 24.5 parts by weight of acetone
# (§5) • 24.5 parts by weight of dimethylacetamide Emulsifier: 1 part by weight of alkylaryl polyglycol ether
# To produce a suitable preparation of active compound, 1 part by weight of active compound is mixed with the stated amounts of solvent and emulsifier, and the concentrate is diluted with water to the desired concentration. To test for protective activity, young plants are sprayed with the preparation of active compound at the stated rate of application. After the spray coating has dried on, the plants are inoculated with an aqueous spore suspension of Alternaria solani. The plants are then placed in an incubation cabinet at approximately 20° C. and a relative atmospheric humidity of 100%. The test is evaluated 3 days after the inoculation. 0% means an efficacy which corresponds to that of the control while an efficacy of 100% means that no disease is observed.
# Botrytis cinerea = experiment: Botrytis test (beans)/protective; conditions: Botrytis cinerea, 48 h, Table F, test 3, read-out: Efficacy in % found
# Method: as §4, §5
# To produce a suitable preparation of active compound, 1 part by weight of active compound is mixed with the stated amounts of solvent and emulsifier, and the concentrate is diluted with water to the desired concentration. To test for protective activity, young plants are sprayed with the preparation of active compound. After the spray coating has dried on, 2 small pieces of agar covered with growth of Botrytis cinerea are placed on each leaf. The inoculated plants are placed in a darkened chamber at 20° C. and a relative atmospheric humidity of 100%. 2 days after the inoculation, the size of the lesions on the leaves is evaluated. 0% means an efficacy which corresponds to that of the control, while an efficacy of 100% means that no disease is observed.
# Sphaerotheca fuliginea = experiment: Sphaerotheca test (cucumbers)/protective; conditions: Table C, test 4; 5 ppm a.i.
# Method: as §4, §5
# To produce a suitable preparation of active compound, 1 part by weight of active compound is mixed with the stated amounts of solvent and emulsifier, and the concentrate is diluted with water to the desired concentration. To test for protect activity, young plants are sprayed with the preparation of active compound at the stated rate of application. After the spray coating has dried on, the plants are inoculated with an aqueous spore suspension of Sphaerotheca fuliginea. The plants are then placed in a greenhouse at approximately 23° C. and a relative atmospheric humidity of approximately 70%. The test is evaluated 7 days after the inoculation. 0% means an efficacy which corresponds to that of the control, while an efficacy of 100% means that no disease is observed.
# Puccinia triticina = experiment: Puccinia triticina-test (wheat)/preventive; conditions: Table M; 62.5 ppm a.i.
# Method: as §1, §2
# as §3, with “sprayed” for “dusted”, “a spore suspension” for “spores”, “Puccinia triticina. The plants remain for 48 hours in an incubation cabinet at approximately 20° C. and a relative atmospheric humidity of approximately 100%.” for “Blumeria graminis fsp. tritici.”, “20°” for “18°”, “80%.” for “80% to promote the development of mildew pustules.”, “8” for “7”
smiles,measurement,setting,value
"CC1(C)CCC(Cc2ccc(Cl)cc2)C1(O)Cn1cncn1 (stereo not shown) [1.30, metconazole]",Efficacy in % found,Fusarium graminearum,0%
"CNC(=O)/C(=N/OC)c1ccccc1Oc1ccccc1 [(3.10), metominostrobin]",Efficacy in % found,[1],13%
same,pest or weed control at 2.5 ppm,Alternaria solani,15%
same,pest or weed control at 50 ppm,Botrytis cinerea; 50 ppm a.i.,55%
"CO/C=C(/C(=O)OC)c1ccccc1COc1cccc(C(F)(F)F)n1 [(3.12), picoxystrobin]",Efficacy in % found,Sphaerotheca fuliginea,62%
same,Efficacy in % found,Alternaria solani,60%
same,Efficacy in % found,Puccinia triticina,80%
"CC(C)CC(C)c1sccc1NC(=O)c1cn(C)nc1C(F)(F)F (stereo not shown) [(2.20), penthiopyrad]",pest or weed control at 2.5 ppm,Alternaria solani,50%
same,pest or weed control at 2.5 ppm,Botrytis cinerea; 2.5 ppm a.i.,65%
same,Efficacy in % found,Puccinia triticina,70%
